In publication PMC6886544:
Where two headings read alike, the source gives them in different places.

Key:
[1] = system: HCC827 cells (EGFR-delE746_A750); experiment: CellTiter-Glo viability assay, HCC827; assay type: cell-based; settings: Homo sapiens; HCC827, 96 hours, CellTiter-Glo; read-out: EGFR CTG EC50 HCC827;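 also: luminescence from ATP content as a measure of metabolically active cells, in RPMI with 10% FBS, compound added as serial dilutions after 24 h of preculture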
Description: (§1) A431, HCC827, H1975, A549 and H358 cells were obtained from the American Type Culture Collection (ATCC). A431 cells were cultured in DMEM high glucose media (Life Technologies, Germany), and HCC827, H1975, A549 as well as H358 cells were cultured in RPMI media (Life Technologies, Germany), both containing L-Glutamine and were supplemented with 10% FBS (GE Healthcare, Austria) and 1% PenStrep (Life Technologies, Germany) in a humidified incubator at 37 °C and 5% CO2.
(§2) Cells were seeded at cell numbers that assure linearity and optimal signal intensity (150-300 cells/well, 25 µL) and cultured for 24 hours in serum- and antibiotics-containing media in humidified chambers at 37 °C / 5% CO2. The cells were then treated with EGFR inhibitors in serial
(§3) Afterwards viability studies were carried out using CellTiter-Glo Assay (Promega, USA) that is a homogeneous method of determining the number of viable cells in culture. It is based on quantification of ATP, indicating the presence of metabolically active cells. For these studies, CellTiter-Glo reagent was prepared according to the instructions of the kit and diluted 1:1 with the complete growth medium suitable for the corresponding cell line. Thereon, reagent and assay plates were equilibrated at room temperature for 20 min. Equal volumes of the reagent were added to the volume of culture medium present in each well (25 µL). The plates were mixed for 2 minutes on an orbital shaker to induce cell lysis. The microplates were then incubated at room temperature for 20 minutes for stabilization of the luminescent signal. Following incubation the luminescence was recorded on an EnVision microplate reader (Perkin Elmer) using 500 ms integration time. The data was then analyzed using the Quattro Research Software Suite for EC50-determination. As quality control the Z’-factor was calculated from 16 positive and negative control values. Only assay results showing a Z’-factor ≥0.5 were used for further analysis. All data points were measured in duplicates for each plate and were replicated in at least two plates.

H358 cells (KRAS mutant) = experiment: CellTiter-Glo viability assay, H358; assay type: cell-based; settings: Homo sapiens, NCI-H358;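 also: viable cell number estimated from ATP-dependent luminescence following exposure to serially diluted inhibitor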
Description: as §1, §2, §3

[2] = Microsomal stability (phase I), mouse; assay type: in vitro ADME; settings: mouse liver microsomes, up to 60 minutes, 37 °C
Description: Microsomal stability (phase I) assay.
Metabolic stability under oxidative conditions was measured in liver microsomes from different
time up to 50 minutes (HLM) or 60 minutes (MLM) at 37 °C. Based on the compound half-life t1/2,
the in vitro intrinsic clearance CLint was calculated. […]

[3] = system: A431 cells (EGFR wild type); experiment: CellTiter-Glo viability assay, A431
Description: as §1, §2, §3

A549 cells (KRAS mutant) = experiment: CellTiter-Glo viability assay, A549; settings: Homo sapiens
Description: as §1, §2, §3

[4] = system: H1975 cells (EGFR-L858R/T790M); experiment: CellTiter-Glo viability assay, H1975; settings: Homo sapiens, NCI-H1975, 96 h, read-out: EGFR CTG EC50 H1975, H1975, 96 hours, CellTiter-Glo
EGFR-wt = EGFR-wt (Homo sapiens, UniProt P00533); experiment: HTRF KinEASE-TK activity-based assay, EGFR-wt; settings: EGFR HTRF IC50 wt, ATP at Km (9.5 µM), 30 min preincubation; mean ± SD of three independent measurements in duplicates
EGFR-L858R = EGFR-L858R (Homo sapiens, UniProt P00533, L858R); experiment: HTRF KinEASE-TK activity-based assay, EGFR-L858R
EGFR-L858R/T790M = EGFR-L858R/T790M (Homo sapiens, UniProt P00533, L858R/T790M); experiment: HTRF KinEASE-TK activity-based assay, EGFR-L858R/T790M; settings: EGFR HTRF IC50 L858R/T790M, ATP at Km (4 µM), 30 min preincubation; mean ± SD of three independent measurements in duplicates
[5] = system: EGFR and downstream cascade phosphorylation in A431 cells; experiment: Western blot analysis in A431 cells; assay type: cell-based; settings: 1 h inhibitor then EGF stimulation
Description: and incubated at 37 °C and 5% CO2. On day 2 cells were starved over night with media containing 0.5% FBS to be incubated on day 3 for 1 h with EGFR inhibitors following an additional 30 min of EGF stimulation at 50 ng/mL. The media was discarded and cells were washed once with DPBS
1x. Using 100 μL per well of lysis buffer, cells were then scraped off and lysed while rotating (Stuart Scientific, Staffordshire, UK) for 1 h at 4 °C. […] Supernatant was transferred into new tube and protein concentrations were determined with the Bio-Rad Protein Assay (Bio-Rad Laboratories, Hercules, CA). […]
captured and quantified using a FUJI LAS3000 system with Science Lab 2001 ImageGauge 4.0 software (Fujifilm Medial Systems, Stamford CT, USA). […]
glycerol, 1 mM TCEP, pH 8) on ice for 1 h. We analyzed the aliquots by ESI-MS using an Thermo Fisher Scientific Dionex UltiMate 3000 HPLC system connected to a Thermo Fisher Scientific Velos Pro (2d ion trap). Therefore, 5 μL of sample was injected and separated using a Vydac 214TP C4 5 μm column (150 mm x 2.1 mm) starting at 20% of solvent B for 5 minutes followed by a gradient up to 90% of solvent B over 14 min with a flow rate of 210 μL/min with 0.1% TFA in water as solvent A and 0.1% TFA in MeCN as solvent B. A mass range of 700 to 2000 m/z was scanned and raw data was deconvoluted and analyzed with MagTran software (Z.Q. Zhang, A.G. […]

[6] = H358, 96 hours, CellTiter-Glo, read-out: KRAS CTG EC50 H358
[7] = Homo sapiens, A-431, 96 h, read-out: EGFR CTG EC50 A431, A431, 96 hours, CellTiter-Glo
[8] = A549, 96 h, read-out: KRAS CTG EC50 A549

Sequence of EGFR-L858R (P00533 25-1210 L858R): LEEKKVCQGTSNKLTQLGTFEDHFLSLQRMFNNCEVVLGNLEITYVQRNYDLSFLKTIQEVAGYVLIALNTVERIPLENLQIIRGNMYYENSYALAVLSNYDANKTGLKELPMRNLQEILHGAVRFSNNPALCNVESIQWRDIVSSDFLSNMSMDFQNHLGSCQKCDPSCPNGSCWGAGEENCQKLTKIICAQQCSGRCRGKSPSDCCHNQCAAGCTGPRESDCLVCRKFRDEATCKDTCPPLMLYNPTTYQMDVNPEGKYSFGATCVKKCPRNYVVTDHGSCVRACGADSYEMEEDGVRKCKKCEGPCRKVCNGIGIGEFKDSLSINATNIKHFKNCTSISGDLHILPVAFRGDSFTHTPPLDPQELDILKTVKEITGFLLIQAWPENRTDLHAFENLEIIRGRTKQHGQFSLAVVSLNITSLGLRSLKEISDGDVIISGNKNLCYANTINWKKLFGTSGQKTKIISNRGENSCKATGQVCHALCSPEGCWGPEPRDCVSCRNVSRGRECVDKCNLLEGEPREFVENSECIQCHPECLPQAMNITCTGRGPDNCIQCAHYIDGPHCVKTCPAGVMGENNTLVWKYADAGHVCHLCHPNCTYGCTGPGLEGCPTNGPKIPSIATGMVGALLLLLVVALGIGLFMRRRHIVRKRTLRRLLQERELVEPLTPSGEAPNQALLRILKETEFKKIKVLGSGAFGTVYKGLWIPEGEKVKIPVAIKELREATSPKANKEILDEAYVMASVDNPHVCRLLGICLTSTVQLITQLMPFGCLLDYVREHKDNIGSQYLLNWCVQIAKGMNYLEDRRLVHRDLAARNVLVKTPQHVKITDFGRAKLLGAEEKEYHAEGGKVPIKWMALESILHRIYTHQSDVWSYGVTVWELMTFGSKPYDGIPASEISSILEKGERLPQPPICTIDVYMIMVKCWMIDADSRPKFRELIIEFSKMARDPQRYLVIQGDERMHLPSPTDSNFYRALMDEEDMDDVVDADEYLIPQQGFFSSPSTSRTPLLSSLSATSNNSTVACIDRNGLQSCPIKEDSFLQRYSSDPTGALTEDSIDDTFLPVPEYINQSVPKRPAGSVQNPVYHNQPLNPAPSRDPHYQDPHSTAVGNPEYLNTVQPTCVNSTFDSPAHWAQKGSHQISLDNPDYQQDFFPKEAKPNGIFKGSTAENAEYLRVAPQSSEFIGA
Sequence of EGFR-L858R/T790M (P00533 25-1210 T790M/L858R): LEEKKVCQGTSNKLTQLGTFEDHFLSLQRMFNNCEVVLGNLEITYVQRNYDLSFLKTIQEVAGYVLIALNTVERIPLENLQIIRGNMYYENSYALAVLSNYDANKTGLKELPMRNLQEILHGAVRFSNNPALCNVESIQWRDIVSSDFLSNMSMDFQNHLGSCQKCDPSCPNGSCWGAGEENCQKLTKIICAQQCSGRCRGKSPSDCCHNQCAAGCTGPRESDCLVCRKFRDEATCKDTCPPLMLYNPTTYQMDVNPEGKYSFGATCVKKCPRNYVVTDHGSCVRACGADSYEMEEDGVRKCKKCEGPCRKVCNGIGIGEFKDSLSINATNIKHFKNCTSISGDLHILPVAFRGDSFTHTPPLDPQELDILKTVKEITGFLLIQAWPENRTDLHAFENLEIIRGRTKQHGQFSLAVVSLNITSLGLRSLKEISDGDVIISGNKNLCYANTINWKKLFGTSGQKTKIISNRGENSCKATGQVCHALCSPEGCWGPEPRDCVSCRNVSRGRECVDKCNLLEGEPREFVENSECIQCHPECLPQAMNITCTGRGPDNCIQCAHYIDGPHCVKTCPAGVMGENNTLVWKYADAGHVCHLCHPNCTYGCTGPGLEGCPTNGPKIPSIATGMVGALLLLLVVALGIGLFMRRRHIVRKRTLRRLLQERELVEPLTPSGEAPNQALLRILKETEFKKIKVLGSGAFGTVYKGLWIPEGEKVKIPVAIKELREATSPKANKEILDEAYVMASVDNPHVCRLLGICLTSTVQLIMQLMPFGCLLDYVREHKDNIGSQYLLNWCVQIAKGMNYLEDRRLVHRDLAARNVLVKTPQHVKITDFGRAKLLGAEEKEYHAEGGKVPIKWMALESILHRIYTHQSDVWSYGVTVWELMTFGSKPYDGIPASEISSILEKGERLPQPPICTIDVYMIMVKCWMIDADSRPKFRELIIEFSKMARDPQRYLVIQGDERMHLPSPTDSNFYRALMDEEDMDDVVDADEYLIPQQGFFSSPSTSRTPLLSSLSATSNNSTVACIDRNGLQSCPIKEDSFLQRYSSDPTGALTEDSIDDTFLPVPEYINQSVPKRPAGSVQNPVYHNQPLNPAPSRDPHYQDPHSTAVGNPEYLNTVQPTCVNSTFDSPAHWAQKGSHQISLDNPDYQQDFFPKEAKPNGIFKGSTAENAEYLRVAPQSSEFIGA
Sequence of EGFR-wt (P00533 25-1210): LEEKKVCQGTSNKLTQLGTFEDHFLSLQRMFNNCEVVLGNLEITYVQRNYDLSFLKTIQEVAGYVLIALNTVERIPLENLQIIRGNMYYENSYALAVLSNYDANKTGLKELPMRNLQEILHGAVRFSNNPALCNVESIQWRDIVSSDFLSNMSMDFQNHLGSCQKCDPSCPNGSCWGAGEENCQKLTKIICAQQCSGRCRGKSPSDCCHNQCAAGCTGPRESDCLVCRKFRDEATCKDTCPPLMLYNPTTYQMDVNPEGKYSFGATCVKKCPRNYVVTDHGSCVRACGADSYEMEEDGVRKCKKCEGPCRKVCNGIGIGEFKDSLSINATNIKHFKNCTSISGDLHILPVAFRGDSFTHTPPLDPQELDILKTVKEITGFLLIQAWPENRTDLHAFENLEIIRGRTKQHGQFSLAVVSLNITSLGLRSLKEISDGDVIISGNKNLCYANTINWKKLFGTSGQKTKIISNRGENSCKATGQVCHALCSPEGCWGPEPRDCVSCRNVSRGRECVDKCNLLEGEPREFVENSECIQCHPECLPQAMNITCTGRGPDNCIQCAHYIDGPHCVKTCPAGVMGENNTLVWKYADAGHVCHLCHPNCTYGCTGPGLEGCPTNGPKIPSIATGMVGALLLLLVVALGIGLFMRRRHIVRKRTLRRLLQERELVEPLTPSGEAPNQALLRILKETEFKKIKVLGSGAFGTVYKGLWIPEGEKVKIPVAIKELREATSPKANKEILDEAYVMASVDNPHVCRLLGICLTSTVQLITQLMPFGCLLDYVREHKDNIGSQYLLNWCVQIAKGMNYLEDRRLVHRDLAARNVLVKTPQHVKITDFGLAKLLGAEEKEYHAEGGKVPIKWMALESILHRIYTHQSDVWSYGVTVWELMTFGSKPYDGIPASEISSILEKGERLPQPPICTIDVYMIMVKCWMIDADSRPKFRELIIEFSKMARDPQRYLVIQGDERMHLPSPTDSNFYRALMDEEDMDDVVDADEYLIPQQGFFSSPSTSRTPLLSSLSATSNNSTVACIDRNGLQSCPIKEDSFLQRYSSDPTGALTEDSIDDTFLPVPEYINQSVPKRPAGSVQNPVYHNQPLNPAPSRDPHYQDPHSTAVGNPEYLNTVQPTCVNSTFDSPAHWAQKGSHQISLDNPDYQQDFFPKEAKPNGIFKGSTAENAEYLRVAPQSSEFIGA

Row | Compound | EC50 [1] [nM] | EC50 (H358 cells (KRAS mutant); [6]) [nM] | EC50 (H358 cells (KRAS mutant); H358, rounded value in running text, read-out: EC50 H358) [nM] | microsomal CLint at 3 µM [2] [µL/min/mg] | EC50 [3, 7] [nM] | EC50 ([3]; Homo sapiens, A-431, read-out: EC50 A431, A431, rounded value in running text) [nM] | EC50 (A549 cells (KRAS mutant); [8]) [nM] | EC50 (A549 cells (KRAS mutant); A549, read-out: EC50 A549) [nM] | EC50 [4] [nM] | IC50 (EGFR-wt) [nM] | IC50 (EGFR-L858R) [nM] | IC50 (EGFR-L858R/T790M) [nM] | concentration at which phosphorylation of EGFR and downstream proteins was reduced [5] | EC50 ([3]; read-out: EGFR CTG EC50 A431, A431, 96 hours, CellTiter-Glo) [nM]
1 | C=CC(=O)Nc1cccc(-c2c(-c3ccc(N4CCN(C)CC4)cc3)[nH]c3ncnc(OCC(C)C)c23)c1 [Compound 19h] | < 14 | 3690 ± 1460 | 3700 | 46 | 1680 ± 402 | 1700 | 3650 ± 1750 | 3700 | 51 ± 19 | 0.2 ± 0.2 | < 0.1 | < 0.1 |  | 
2 | C=CC(=O)Nc1cccc(-c2c(-c3ccc(CN4CCN(C)CC4)cc3)[nH]c3ncnc(OC)c23)c1 [Compound 17a] | < 14 | 2910 ± 1470 |  | 26 | 700 |  | 2500 ± 1630 |  | 137 ± 51 | 15 ± 10 | 2.3 ± 0.4 | 4 ± 1.7 | about 1 μM | 768 ± 271
